Laboratory results reported in patent US20230312550A1, “N-(2-(4-CYANOTHIAZOLIDIN-3-YL)-2-OXOETHYL)-QUINOLINE-4-CARBOXAMIDES” (AstraZeneca AB, priority 2020, published 2023).
≈ marks a conversion by molar mass, not a printed value.

What was measured:
[1] = biological target: Prolyl endopeptidase, Prolyl Oligopeptidase (hPREP) (Homo sapiens (Human), UniProt P48147); assay: hPrep inhibition assay; assay type: biochemical; conditions: hPREP 0.6 nM, Z-Gly-Pro-amino-methylcoumarin 50 μM; read-out: PREP IC50
Chain of Prolyl endopeptidase, Prolyl Oligopeptidase (hPREP) (P48147 whole entry): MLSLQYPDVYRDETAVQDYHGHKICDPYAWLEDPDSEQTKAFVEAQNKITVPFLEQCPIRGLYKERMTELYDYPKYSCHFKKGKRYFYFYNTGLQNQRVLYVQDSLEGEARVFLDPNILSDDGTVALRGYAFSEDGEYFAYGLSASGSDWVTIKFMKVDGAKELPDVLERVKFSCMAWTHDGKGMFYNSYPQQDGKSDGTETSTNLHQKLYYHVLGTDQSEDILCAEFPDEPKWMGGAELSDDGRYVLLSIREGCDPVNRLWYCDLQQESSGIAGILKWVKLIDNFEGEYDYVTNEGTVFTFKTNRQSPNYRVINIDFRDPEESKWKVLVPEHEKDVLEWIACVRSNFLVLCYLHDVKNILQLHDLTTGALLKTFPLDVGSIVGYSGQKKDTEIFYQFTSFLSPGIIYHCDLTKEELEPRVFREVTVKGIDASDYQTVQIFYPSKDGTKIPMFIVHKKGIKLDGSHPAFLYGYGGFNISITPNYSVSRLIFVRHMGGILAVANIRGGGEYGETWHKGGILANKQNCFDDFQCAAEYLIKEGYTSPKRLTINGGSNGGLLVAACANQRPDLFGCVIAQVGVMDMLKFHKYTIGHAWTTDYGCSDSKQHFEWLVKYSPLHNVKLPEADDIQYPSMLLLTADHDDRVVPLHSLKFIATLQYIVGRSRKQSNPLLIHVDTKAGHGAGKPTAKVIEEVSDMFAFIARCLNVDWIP
How it was run: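 Fluorogenic read-out (340 nm excitation, 460 nm emission) after 20 min at rt, using 50 μM final Z-Gly-Pro-aminomethylcoumarin and 0.6 nM final enzyme, following 15 min compound preincubation. Buffer pH 7.5 with glutathione and Triton X-100. IC50 via one-site model on % inhibition vs log concentration.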

[2] = Metabolic stability in human liver microsomes (HLM); conditions: human
Procedure: Metabolic stability in HLM was measured as described in J Comput Aided Mol Des 2015, 29, 795.

hFAP (M39-A757) = hFAP (M39-A757) (Homo sapiens (Human), UniProt Q12884); assay: hFAP binding assay (surface plasmon resonance); conditions: SPR, 20° C.; for hFAP Binding assay k(off) / hFAP Binding assay k(on): single cycle kinetics; for Kd: n = 1 or geometric mean n = 2-4
Chain of hFAP (M39-A757) (Q12884 39-757): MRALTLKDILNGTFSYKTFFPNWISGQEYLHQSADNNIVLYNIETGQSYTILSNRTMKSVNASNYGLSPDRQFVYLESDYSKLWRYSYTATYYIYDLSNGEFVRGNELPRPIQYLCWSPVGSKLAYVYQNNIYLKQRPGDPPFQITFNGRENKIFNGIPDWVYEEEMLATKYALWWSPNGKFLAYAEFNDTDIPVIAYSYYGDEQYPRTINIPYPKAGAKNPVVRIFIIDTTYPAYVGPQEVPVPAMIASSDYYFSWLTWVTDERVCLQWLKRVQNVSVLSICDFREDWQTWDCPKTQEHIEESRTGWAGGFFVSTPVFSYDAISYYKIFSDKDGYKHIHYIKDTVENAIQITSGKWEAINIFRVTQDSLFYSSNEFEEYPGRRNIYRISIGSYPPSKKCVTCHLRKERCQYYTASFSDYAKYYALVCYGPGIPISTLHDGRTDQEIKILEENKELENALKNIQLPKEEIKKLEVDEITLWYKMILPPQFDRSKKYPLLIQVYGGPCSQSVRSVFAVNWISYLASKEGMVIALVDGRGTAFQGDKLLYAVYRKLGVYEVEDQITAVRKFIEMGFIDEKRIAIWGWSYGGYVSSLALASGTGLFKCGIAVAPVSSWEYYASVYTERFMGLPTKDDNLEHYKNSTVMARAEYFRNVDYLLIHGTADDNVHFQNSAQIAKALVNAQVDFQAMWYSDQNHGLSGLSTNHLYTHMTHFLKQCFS

[3] = biological target: human Fibroblast activation protein alpha (hFAP) (Homo sapiens (Human), UniProt Q12884); assay: hFAP inhibition assay (tight binders); assay type: biochemical; conditions: Ala-Pro-AMC 20 μM, n = 1 or geometric mean n = 2-6; note: hFAP 2.4 pM
Chain of human Fibroblast activation protein alpha (hFAP) (Q12884 38-760): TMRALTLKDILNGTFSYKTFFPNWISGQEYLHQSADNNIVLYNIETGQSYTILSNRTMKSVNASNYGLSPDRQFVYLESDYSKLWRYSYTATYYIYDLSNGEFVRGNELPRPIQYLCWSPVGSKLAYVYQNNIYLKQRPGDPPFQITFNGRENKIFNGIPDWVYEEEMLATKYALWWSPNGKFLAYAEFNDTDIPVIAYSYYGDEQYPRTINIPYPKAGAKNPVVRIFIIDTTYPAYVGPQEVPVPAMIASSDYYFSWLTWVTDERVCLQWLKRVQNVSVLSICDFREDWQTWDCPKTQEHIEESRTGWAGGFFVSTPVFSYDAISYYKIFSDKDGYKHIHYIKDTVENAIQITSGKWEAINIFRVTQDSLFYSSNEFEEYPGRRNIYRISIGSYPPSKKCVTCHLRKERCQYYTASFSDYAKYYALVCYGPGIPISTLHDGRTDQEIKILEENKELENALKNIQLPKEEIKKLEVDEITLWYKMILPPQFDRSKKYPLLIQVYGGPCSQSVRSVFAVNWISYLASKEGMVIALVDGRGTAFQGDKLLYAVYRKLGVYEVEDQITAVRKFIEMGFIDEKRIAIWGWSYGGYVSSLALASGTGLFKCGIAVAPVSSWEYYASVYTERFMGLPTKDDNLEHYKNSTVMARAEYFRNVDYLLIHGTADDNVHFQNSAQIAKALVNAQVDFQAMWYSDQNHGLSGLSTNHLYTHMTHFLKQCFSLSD
Procedure: The plates were read on a PHERAstar® reader with excitation 340 nm and emission 460 nm. Data were analyzed in Genedata Screener®. IC50 values were determined by plotting % inhibition versus log compound concentration and using a one site dose response model.

[4] = Metabolic stability in rat hepatocytes (rHep); conditions: n = 1 or geometric mean of n = 2-3
FAP = FAP (Homo sapiens (Human), UniProt Q12884); assay: hFAP inhibition assay; assay type: biochemical; conditions: hFAP […], Ala-Pro-AMC 20 μM; n = 1 or geometric mean n = 2-3
Chain of FAP (Q12884 38-760): as above
How it was run: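 Compounds (10-point, 3-fold dilutions from 50 μM top) were preincubated 15 min at rt in the dark with 0.48 nM hFAP in pH 7.4 Tris/NaCl/Chaps buffer. Reaction was started with substrate (40 μM solution) and ran 30 min at rt. Read by fluorescence (340/460 nm); IC50 from one-site fit.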

[5] = Metabolic stability in human hepatocytes (hHep); assay type: in vitro ADME; conditions: n = 1 or geometric mean of n = 2
Caco-2 cell permeability = conditions: human
Procedure: Caco-2 cell permeability was measured as described in Mol Pharm 2017, 14, 1601.

Kinetic solubility = conditions: kinetic from dmso stock
Procedure: Kinetic solubility was measured as described in Comput Aided Mol Des 2015, 29, 795.

[6] = HLM CLint, n = 1 or average of n = 2-3
[7] = Solubility, kinetic solubility, n = 1 or average of n = 2-3

IC50 [1]	microsomal CLint [2, 6]	hFAP Binding assay k(off) (hFAP (M39-A757))	hFAP Binding assay k(on) (hFAP (M39-A757))	Kd (hFAP (M39-A757))	IC50 [3]	rHep CLint [4]	IC50 (FAP)	hHep CLint [5]	Papp A→B (Caco-2 cell permeability)	Papp B→A (Caco-2 cell permeability)	efflux ratio (Caco-2 cell permeability)	solubility (Kinetic solubility; [7])	Papp (Caco-2 cell permeability)	Structure (SMILES)	microsomal CLint [2]	solubility (Kinetic solubility)
93 nM	15 µL/min/mg	0.0002 s⁻¹	3000000 M⁻¹ s⁻¹	0.066 nM	0.11 nM	17 μL/min/1E6	0.29 nM	<1 μL/min/1E6	3.7 ×10⁻⁶ cm/s	23 ×10⁻⁶ cm/s	6.2	390 µM (≈ 156 µg/mL)		N#C[C@@H]1CSCN1C(=O)CNC(=O)c1ccnc2ccc(N3CC(F)C3)cc12 [Example 21, (R)—N-(2-(4-Cyanothiazolidin-3-yl)-2-oxoethyl)-6-(3-fluoroazetidin-1-yl)quinoline-4-carboxamide]		
450 nM	40 µL/min/mg	0.000029 s⁻¹	1300000 M⁻¹ s⁻¹	0.022 nM	0.16 nM	19 μL/min/1E6	0.3 nM	4.1 μL/min/1E6	8.7 ×10⁻⁶ cm/s	28 ×10⁻⁶ cm/s	3.3	240 µM (≈ 98.3 µg/mL)		N#C[C@@H]1CSCN1C(=O)CNC(=O)c1ccnc2ccc(N3CCCCC3)cc12 [Example 32, (R)—N-(2-(4-Cyanothiazolidin-3-yl)-2-oxoethyl)-6-(piperidin-1-yl)quinoline-4-carboxamide]		
430 nM	3.1 µL/min/mg	0.000022 s⁻¹	2600000 M⁻¹ s⁻¹	0.011 nM	0.19 nM	1.8 μL/min/1E6	0.28 nM	<1 μL/min/1E6	0.18 ×10⁻⁶ cm/s	3.7 ×10⁻⁶ cm/s	21	990 µM (≈ 483 µg/mL)	0.28 ×10⁻⁶ cm/s	CC1(CS(C)(=O)=O)CN(c2ccc3nccc(C(=O)NCC(=O)N4CSC[C@H]4C#N)c3c2)C1 [Example 188, (R)—N-(2-(4-Cyanothiazolidin-3-yl)-2-oxoethyl)-6-(3-methyl-3-((methylsulfonyl)methyl)azetidin-1-yl)quinoline-4-carboxamide]		
510 nM	< 3 µL/min/mg	0.00022 s⁻¹	5200000 M⁻¹ s⁻¹	0.042 nM	0.12 nM	7.2 μL/min/1E6	0.28 nM	<1 μL/min/1E6	3.1 ×10⁻⁶ cm/s	30 ×10⁻⁶ cm/s	9.6	> 1000 µM	15 ×10⁻⁶ cm/s	CO[C@@H]1CN(c2ccc3nccc(C(=O)NCC(=O)N4CSC[C@H]4C#N)c3c2)[C@H]1C [Example 30, N-(2-((R)-4-Cyanothiazolidin-3-yl)-2-oxoethyl)-6-((2S,3R)-3-methoxy-2-methylazetidin-1-yl)quinoline-4-carboxamide]		
500 nM	18 µL/min/mg	0.000061 s⁻¹	1100000 M⁻¹ s⁻¹	0.057 nM	0.055 nM	4.5 μL/min/1E6	0.13 nM	<1 μL/min/1E6	3.7 ×10⁻⁶ cm/s	37 ×10⁻⁶ cm/s	10	560 µM (≈ 246 µg/mL)	26 ×10⁻⁶ cm/s	COCC1(C)CN(c2ccc3nccc(C(=O)NCC(=O)N4CSC[C@H]4C#N)c3c2)C1 [Example 29, (R)—N-(2-(4-Cyanothiazolidin-3-yl)-2-oxoethyl)-6-(3-(methoxymethyl)-3-methylazetidin-1-yl)quinoline-4-carboxamide]		

Continued, molecule first:

Structure (SMILES)	IC50 [1]	microsomal CLint [2, 6]	hFAP Binding assay k(off) (hFAP (M39-A757))	hFAP Binding assay k(on) (hFAP (M39-A757))	Kd (hFAP (M39-A757))	IC50 [3]	rHep CLint [4]	IC50 (FAP)	hHep CLint [5]	Papp A→B (Caco-2 cell permeability)	Papp B→A (Caco-2 cell permeability)	efflux ratio (Caco-2 cell permeability)	solubility (Kinetic solubility; [7])	Papp (Caco-2 cell permeability)	microsomal CLint [2]	solubility (Kinetic solubility)
C[C@@H]1COC[C@H](C)N1c1ccc2nccc(C(=O)NCC(=O)N3CSC[C@H]3C#N)c2c1 [Example 90, N-(2-((R)-4-Cyanothiazolidin-3-yl)-2-oxoethyl)-6-((3S,5R)-3,5-dimethyl-morpholino)quinoline-4-carboxamide]	1100 nM	100 µL/min/mg	0.00010 s⁻¹	480000 M⁻¹ s⁻¹	0.38 nM	0.35 nM	20 μL/min/1E6	0.75 nM	4.6 μL/min/1E6	1.2 ×10⁻⁶ cm/s	19 ×10⁻⁶ cm/s	16	> 1000 µM			
CC1(C)COC12CN(c1ccc3nccc(C(=O)NCC(=O)N4CSC[C@H]4C#N)c3c1)C2 [Example 18, (R)—N-(2-(4-Cyanothiazolidin-3-yl)-2-oxoethyl)-6-(3,3-dimethyl-1-oxa-6-azaspiro[3.3]heptan-6-yl)quinoline-4-carboxamide]	570 nM		0.000059 s⁻¹	1400000 M⁻¹ s⁻¹	0.068 nM	0.047 nM	6 μL/min/1E6	0.19 nM	3.7 μL/min/1E6	0.9 ×10⁻⁶ cm/s	31 ×10⁻⁶ cm/s	34		13 ×10⁻⁶ cm/s	22 µL/min/mg	93 µM (≈ 42 µg/mL)
N#C[C@@H]1CSCN1C(=O)CNC(=O)c1ccnc2ccc(N3CCOC4(CCOCC4)C3)cc12 [Example 99, (R)—N-(2-(4-cyanothiazolidin-3-yl)-2-oxoethyl)-6-(1,9-dioxa-4-azaspiro[5.5]undecan-4-yl)quinoline-4-carboxamide]	1100 nM		0.0002 s⁻¹	2100000 M⁻¹ s⁻¹	0.11 nM	0.12 nM	8.1 μL/min/1E6		1.9 μL/min/1E6	0.46 ×10⁻⁶ cm/s	21 ×10⁻⁶ cm/s	46			16 µL/min/mg	800 µM (≈ 385 µg/mL)
CS(=O)(=O)C[C@@H]1CN(c2ccc3nccc(C(=O)NCC(=O)N4CSC[C@H]4C#N)c3c2)CCO1 [Example 94, N-(2-((R)-4-Cyanothiazolidin-3-yl)-2-oxoethyl)-6-((S)-2-((methylsulfonyl)-methyl)morpholino)quinoline-4-carboxamide]	1800 nM	7.1 µL/min/mg	0.000099 s⁻¹	1900000 M⁻¹ s⁻¹	0.074 nM	0.071 nM	2.2 μL/min/1E6		<1 μL/min/1E6	0.15 ×10⁻⁶ cm/s	4.4 ×10⁻⁶ cm/s	29	920 µM (≈ 463 µg/mL)			
CC1(C)Cc2c(-c3ccc4nccc(C(=O)NCC(=O)N5CSC[C@H]5C#N)c4c3)cnn2C1 [Example 123, (R)—N-(2-(4-Cyanothiazolidin-3-yl)-2-oxoethyl)-6-(5,5-dimethyl-5,6-dihydro-4H-pyrrolo[1,2-b]pyrazol-3-yl)quinoline-4-carboxamide]	740 nM	32 µL/min/mg	0.00042 s⁻¹	3000000 M⁻¹ s⁻¹	0.14 nM	0.083 nM	7.1 μL/min/1E6	0.25 nM	1.6 μL/min/1E6	0.17 ×10⁻⁶ cm/s	29 ×10⁻⁶ cm/s	170	280 µM (≈ 129 µg/mL)	14 ×10⁻⁶ cm/s		
CS(=O)(=O)C[C@H]1CN(c2ccc3nccc(C(=O)NCC(=O)N4CSC[C@H]4C#N)c3c2)CCO1 [Example 92, N-(2-((R)-4-Cyanothiazolidin-3-yl)-2-oxoethyl)-6-((R)-2-((methylsulfonyl)-methyl)morpholino)quinoline-4-carboxamide]	2400 nM	14 µL/min/mg	0.00011 s⁻¹	2200000 M⁻¹ s⁻¹	0.047 nM	0.074 nM	1.7 μL/min/1E6		<1 μL/min/1E6	0.12 ×10⁻⁶ cm/s	4.2 ×10⁻⁶ cm/s	35	810 µM (≈ 408 µg/mL)			
